What was measured:
PBMCs [1] = assay: PBMC assay, IL-6 release (HTRF); assay type: cell-based; conditions: PBMCs from healthy donors, overnight, IL-6 induction by HTRF, average of quadruplicate
TLR7 = biological target: T1, TLR7 (Homo sapiens, UniProt Q9NYK1); assay: Reporter gene assay, HEK-Blue TLR7 reporter cells (SEAP)
T1 sequence (Q9NYK1 27-1049): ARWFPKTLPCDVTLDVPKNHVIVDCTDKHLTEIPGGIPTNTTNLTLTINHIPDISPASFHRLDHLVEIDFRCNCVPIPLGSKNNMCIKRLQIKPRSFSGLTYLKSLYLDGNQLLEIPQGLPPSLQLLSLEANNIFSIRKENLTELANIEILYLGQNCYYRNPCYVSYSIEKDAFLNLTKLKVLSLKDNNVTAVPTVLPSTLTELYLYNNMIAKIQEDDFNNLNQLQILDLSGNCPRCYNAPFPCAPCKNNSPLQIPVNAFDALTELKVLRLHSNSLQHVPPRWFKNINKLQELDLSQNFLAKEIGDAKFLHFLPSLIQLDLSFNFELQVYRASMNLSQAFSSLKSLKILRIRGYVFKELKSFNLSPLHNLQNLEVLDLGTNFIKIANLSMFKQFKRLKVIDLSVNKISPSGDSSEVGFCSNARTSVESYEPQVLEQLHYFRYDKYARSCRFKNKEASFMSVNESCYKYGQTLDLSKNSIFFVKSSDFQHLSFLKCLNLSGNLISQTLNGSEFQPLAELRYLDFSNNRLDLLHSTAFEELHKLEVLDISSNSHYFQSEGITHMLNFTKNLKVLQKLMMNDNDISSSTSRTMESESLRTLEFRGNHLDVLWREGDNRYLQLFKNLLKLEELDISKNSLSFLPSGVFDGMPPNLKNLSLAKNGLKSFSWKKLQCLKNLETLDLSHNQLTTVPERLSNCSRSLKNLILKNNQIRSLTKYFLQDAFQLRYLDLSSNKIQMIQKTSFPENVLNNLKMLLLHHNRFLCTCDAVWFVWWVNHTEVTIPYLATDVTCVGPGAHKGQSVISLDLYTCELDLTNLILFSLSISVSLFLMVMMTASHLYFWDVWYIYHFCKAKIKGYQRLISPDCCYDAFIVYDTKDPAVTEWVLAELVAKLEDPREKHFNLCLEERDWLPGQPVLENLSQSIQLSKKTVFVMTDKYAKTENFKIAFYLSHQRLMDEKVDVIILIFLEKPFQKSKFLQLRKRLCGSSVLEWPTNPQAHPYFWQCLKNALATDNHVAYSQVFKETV
Procedure: (§1) 3×10^4 HEK-Blue™ TLR7 or 3×10^4 TLR8 reporter cells (InvivoGen, San Diego, CA) were treated with titrated (4-fold) amounts of test compound. […] Cells were incubated overnight at 37° C. and 5% CO2, then absorbance (620 and 655 nm) was read on a Synergy™ H1 microplate reader.

TLR8 = biological target: T2, TLR8 (Homo sapiens, UniProt Q9NR97); assay: Reporter gene assay, HEK-Blue TLR8 reporter cells (SEAP)
T2 sequence (Q9NR97 27-1041): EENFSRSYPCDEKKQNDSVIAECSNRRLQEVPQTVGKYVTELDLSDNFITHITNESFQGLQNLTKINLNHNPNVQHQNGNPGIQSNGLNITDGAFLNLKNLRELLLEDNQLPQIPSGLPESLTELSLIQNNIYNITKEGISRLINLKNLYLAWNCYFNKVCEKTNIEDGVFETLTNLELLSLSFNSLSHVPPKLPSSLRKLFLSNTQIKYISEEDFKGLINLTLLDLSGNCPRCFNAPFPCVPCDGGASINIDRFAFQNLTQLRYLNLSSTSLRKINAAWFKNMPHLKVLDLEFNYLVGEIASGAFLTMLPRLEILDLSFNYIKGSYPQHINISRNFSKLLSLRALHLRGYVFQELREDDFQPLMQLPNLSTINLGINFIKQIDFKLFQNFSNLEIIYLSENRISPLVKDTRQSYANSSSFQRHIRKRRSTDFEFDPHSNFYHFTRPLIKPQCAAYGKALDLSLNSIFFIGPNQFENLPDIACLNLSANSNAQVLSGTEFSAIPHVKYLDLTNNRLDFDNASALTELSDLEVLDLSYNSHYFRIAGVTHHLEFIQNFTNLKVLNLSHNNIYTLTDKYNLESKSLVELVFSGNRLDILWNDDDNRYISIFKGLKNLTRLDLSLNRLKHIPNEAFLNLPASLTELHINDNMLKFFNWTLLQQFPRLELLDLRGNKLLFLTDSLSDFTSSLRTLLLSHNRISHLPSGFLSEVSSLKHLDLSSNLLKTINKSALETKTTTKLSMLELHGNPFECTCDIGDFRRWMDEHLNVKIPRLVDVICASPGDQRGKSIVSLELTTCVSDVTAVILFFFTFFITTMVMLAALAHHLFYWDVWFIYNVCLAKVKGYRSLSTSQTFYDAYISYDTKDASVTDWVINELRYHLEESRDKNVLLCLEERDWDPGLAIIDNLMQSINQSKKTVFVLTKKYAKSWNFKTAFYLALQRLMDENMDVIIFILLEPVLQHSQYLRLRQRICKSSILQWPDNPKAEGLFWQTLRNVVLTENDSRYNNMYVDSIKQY
Procedure: as §1

PBMCs [2] = assay: PBMC assay, TNF-α release (HTRF); assay type: cell-based; conditions: PBMCs from healthy donors, overnight, TNF-α induction by HTRF
Procedure: Whole peripheral blood was obtained from healthy donors. PBMCs were isolated from peripheral blood by density gradient centrifugation. […] Technologies, Vancouver, Canada) and centrifuged at 1200×G for 10 minutes in SepMate™ tubes (#15450, […] Technologies). The plasma layer containing PBMCs was poured into a new tube and washed twice. Isolated PBMCs were either used fresh or thawed from previously frozen. 1×10^5 PBMCs were cultured with titrating concentrations of compounds of Formula I overnight followed by assaying for cytokines by homogeneous time resolved fluorescence (HTRF). Compounds were dissolved in DMSO.

Compound | EC50 (TLR7) [µM] | EC50 (TLR8) [µM] | EC50 (PBMCs [1]) [µM] | EC50 (PBMCs [2]) [µM]
CCCCc1nc2c(N)nc3ccsc3c2n1Cc1nc(CN2CCN(CCN3CCOCC3)CC2)cs1 [Compound 234, 2-butyl-1-((4-((4-(2-morpholinoethyl)piperazin-1-yl)methyl)thiazol-2-yl)methyl)-1H-imidazo[4,5-d]thieno[3,2-b]pyridin-4-amine] | 0.27 | > 1 | > 1 | –
CCCCc1nc2c(N)nc3ccsc3c2n1Cc1nc(CNCCCCCO)cs1 [Compound 236, 5-(((2-((4-amino-2-butyl-1H-imidazo[4,5-d]thieno[3,2-b]pyridin-1-yl)methyl)thiazol-4-yl)methyl)amino)pentan-1-ol] | 0.31 | 0.073 | 0.31 | > 1
CCCCc1nc2c(N)nc3ccsc3c2n1Cc1nc(CNCc2ccc(CO)cc2)cs1 [Compound 237, (4-((((2-((4-amino-2-butyl-1H-imidazo[4,5-d]thieno[3,2-b]pyridin-1-yl)methyl)thiazol-4-yl)methyl)amino)methyl)phenyl)methanol] | 0.19 | > 1 | 0.5 | –
CCCCc1nc2c(N)nc3ccsc3c2n1Cc1ncc(CNCC(C)(C)O)s1 [Compound 238, 1-(((2-((4-amino-2-butyl-1H-imidazo[4,5-d]thieno[3,2-b]pyridin-1-yl)methyl)thiazol-5-yl)methyl)amino)-2-methylpropan-2-ol] | 0.42 | > 1 | > 1 | –
CCCCc1nc2c(N)nc3ccsc3c2n1Cc1nc(CN2CCNCC2)cs1 [Compound 242, 2-butyl-1-((4-(piperazin-1-ylmethyl)thiazol-2-yl)methyl)-1H-imidazo[4,5-d]thieno[3,2-b]pyridin-4-amine] | 0.15 | > 1 | > 1 | –
CCCCc1nc2c(N)nc3ccsc3c2n1Cc1ccc(CO)o1 [Compound 253, (5-((4-amino-2-butyl-1H-imidazo[4,5-d]thieno[3,2-b]pyridin-1-yl)methyl)furan-2-yl)methanol] | > 1 | > 1 | > 1 | –

Continued, in another order:

EC50 (TLR7) [µM] | EC50 (TLR8) [µM] | Compound | EC50 (PBMCs [1]) [µM] | EC50 (PBMCs [2]) [µM]
0.089 | > 1 | CCCCc1nc2c(N)nc3ccsc3c2n1Cc1ccc(CNCCCCNC(=O)OCc2ccccc2)cc1 [Compound 260, benzyl (4-((4-((4-amino-2-butyl-1H-imidazo[4,5-d]thieno[3,2-b]pyridin-1-yl)methyl)benzyl)amino)butyl)carbamate] | 0.719 | –
0.106 | > 1 | CCCCc1nc2c(N)nc3ccsc3c2n1Cc1ccc(CNc2ccc3c(c2)CCN(C(=O)OC(C)(C)C)C3)cc1 [Compound 261, tert-butyl 6-((4-((4-amino-2-butyl-1H-imidazo[4,5-d]thieno[3,2-b]pyridin-1-yl)methyl)benzyl)amino)-3,4-dihydroisoquinoline-2(1H)-carboxylate] | 0.602 | –
0.095 | > 1 | CCCCc1nc2c(N)nc3ccsc3c2n1Cc1ccc(CNC2CCCN(C(=O)OC(C)(C)C)C2)cc1 (stereo not shown) [Compound 262, tert-butyl 3-((4-((4-amino-2-butyl-1H-imidazo[4,5-d]thieno[3,2-b]pyridin-1-yl)methyl)benzyl)amino)piperidine-1-carboxylate] | > 1 | –
0.053 | > 1 | CCCCc1nc2c(N)nc3ccsc3c2n1Cc1ccc(CN2CCC(CNC(=O)OC(C)(C)C)CC2)cc1 [Compound 263, tert-butyl ((1-(4-((4-amino-2-butyl-1H-imidazo[4,5-d]thieno[3,2-b]pyridin-1-yl)methyl)benzyl)piperidin-4-yl)methyl)carbamate] | 0.853 | –
0.083 | > 1 | CCCCc1nc2c(N)nc3ccsc3c2n1Cc1ccc(CNCC2CCN(C(=O)OC(C)(C)C)CC2)cc1 [Compound 264, tert-butyl 4-(((4-((4-amino-2-butyl-1H-imidazo[4,5-d]thieno[3,2-b]pyridin-1-yl)methyl)benzyl)amino)methyl)piperidine-1-carboxylate] | 0.153 | –
> 1 | > 1 | CCNCc1nc2c(N)nc3ccsc3c2n1Cc1ccc(CN2CCNCC2)cc1 [Compound 268, 2-((ethylamino)methyl)-1-(4-(piperazin-1-ylmethyl)benzyl)-1H-imidazo[4,5-d]thieno [3,2-b]pyridin-4-amine] | > 1 | –
0.186 | > 1 | CCNCc1nc2c(N)nc3ccsc3c2n1Cc1ccc(CN(CC)CC)cc1 [Compound 269, 1-(4-((diethylamino)methyl)benzyl)-2-((ethylamino)methyl)-1H-imidazo[4,5-d]thieno [3,2-b]pyridin-4-amine] | 0.557 | –

Source: patent publication US20250179088A9 (ZYMEWORKS BC INC., priority 2020, published 2025)
